Literature values in patent publication US20260110035A1, “DNA REPAIR SIGNATURE AND PREDICTION OF RESPONSE FOLLOWING CANCER THERAPY” (priority 2022, published 2026).

Tested on: stage II/III TNBC
Conditions: BrighTNess; only carboplatin (Arm B) vs veliparib+carboplatin (Arm A), with paclitaxel followed by AC

## N.N.O=C([O-])C1(C(=O)[O-])CCC1.[Pt+2] [carboplatin]
  difference in pCR rates between Arm B and Arm A: no substantial difference
